# Reference: patent US9962395B2, “Compositions and methods for maintaining cognitive function” (The Regents of the University of California, priority 2014, dated 2018)
# “Also recorded” adds a separate entry of the source.
# Columns and labels:
# Assay type in all cases: in vivo
# [1] = system: hippocampal CA1 of ovariectomized (OVX) mice; test: Hippocampal slice electrophysiology: long term potentiation (LTP) in CA1 after high-frequency stimulation
# Description: FIGS. 1A and 1B. Estriol partially recovers long term potentiation (LTP) in the hippocampal CA1 of ovariectomized (OVX) mice. (A) LTP induced by 2×100 Hz HFS in sham-placebo treated mice (open squares, n=4) is reduced in OVX-placebo treated mice (gray circles, n=4). Estriol-treated OVX mice show improved synaptic strength (black circles, n=4). Representative traces are superimposed average fEPSPs recorded at baseline and during final 15 minutes after HFS. Estriol (5 mg) or placebo was administered as subcutaneous pellets. Calibration: 2 mV, 5 ms. (B) Summary showing fEPSP slopes during baseline (Pre) and in final 15 minutes after HFS (Post). […] Statistics RM-ANOVA, Tukey's multiple comparison test, ****p≤0.0001.
# Electrophysiology to assess excitatory synaptic transmission is an accepted biomarker for cognitive function in mice, which specifically tests long term potentiation (LTP) during stimulation of the region of the brain responsible for memory, the CA1 region of the hippocampus. Hippocampal electrophysiology was examined in slices from sham surgical mice treated with placebo (SP), ovariectomized mice treated with placebo (OP), and ovariectomized mice treated with estriol (OE). […] LTP was reduced in OP mice as compared to SP mice, consistent with the known deleterious effects upon loss of peripheral estrogen on neurotransmission (FIG. 1).
# [2] = system: PSD-95; test: PSD-95 synaptic protein expression in dorsal hippocampus (western blot, immunofluorescence); settings: OVX mice treated with estriol, n=2
# Description: FIG. 4 consists of two panels, labeled panels (A) and (B). Estriol partially recovers synaptic levels of PSD-95 in the dorsal hippocampus following OVX. Panel A: levels of PSD-95 are decreased in the dorsal hippocampus in OVX-Placebo mice (n=2) compared to Sham-Placebo mice (n=2). […] Scale bar=20 μm, 40× objective.
# Expression of PSD-95 in the CA1 stratum radiatum was shown by both immunofluorescence and by western blot (FIG. 4)
# [3] = system: ovariectomized female C57BL/6 mice; test: Morris water maze (spatial memory) in ovariectomized mice
# Description: (§1) FIG. 5. Peripheral estrogens improve performance on the Morris water maze via ERP expressed on neurons. Healthy female C57BL/6 were tested for cognitive performance (spatial memory) using the Morris water maze, whereby mice learn to spend more time in a target quadrant (TQ) as compared to three other quadrants (OQ). […] (Bottom graph) To determine (a) whether ER beta is required for proper learning and, more specifically, (b) whether ER beta expression in neurons is required for learning, mice were generated that had ER beta conditionally knocked out using CreLox technology, with Cre driving the knock out in neurons via the neuron-specific enolase (NSE) promoter. […] (***p≤0.001, ANOVA-Sidak's posttest). […] The dashed line on the graphs indicates the time expected to be spent in a quadrant by random chance in the absence of learning (25%).
# Ovariectomized mice (OVX-Placebo) display worse performance in the Morris water maze than control mice (Sham-Placebo) (FIG. 5, top panel). The administration of an estriol improves performance in ovariectomized mice (OVX-Estriol) (FIG. 5, top panel).
# [4] = system: NSE-Cre:ERβ^fl/fl mice; test: Morris water maze in mice with neuronal conditional knockout of ER beta; settings: OVX estriol-treated NSE-Cre:ERβ^fl/fl mice, n=7
# Description: as §1
# Thus, estrogen receptor β ligands can likely protect against neuronal defects and disability during neurodegenerative processes. This is consistent with the observation that estriol improved performance since it is a known that estriol is an agonist for various estrogen receptors including estrogen receptor β.
# [5] = system: post-menopausal female patients; test: Randomized, double-blind, placebo-controlled human clinical trial of estriol and norethindrone in menopause; settings: oral estriol 2, 4, 6 or 8 mg/day, 36-month treatment, women
# Description: This example describes a randomized, double-blind, placebo-controlled human clinical trial for the treatment of menopause estriol and norethindrone.
# Women who are taking hormone replacement therapy are excluded from the trial.
# Patients are randomized to oral estriol (2 mg/day, 4 mg/day, 6 mg/day, or 8 mg/day) or to placebo for a 36-month treatment duration. Gynecologists examine the patients before, during, and after the study. Each patient is examined at three- to six-month intervals during the trial. Patients also undergo mammograms before and after the study. In addition, at baseline, 3 months, 6 months, 12 months, 18 months, 24, months, 30 months, and 36 months, the investigators measure participants' estriol levels, and assess cognitive abilities.
# A total of 100 patients receive estriol, and 100 patients receive placebo. Baseline characteristics are similar in both patient groups. Participants' mean age at entry is approximately 52 years. […] To ensure breast and uterus safety, every three months the patients take norethindrone 0.7 mg once a day for 14 days.
structure (smiles),measurement,setting,value
C[C@]12CC[C@@H]3c4ccc(O)cc4CC[C@H]3[C@@H]1C[C@@H](O)[C@@H]2O [estriol],LTP versus OVX-placebo mice (in words),"[1]; OVX mice treated with estriol for 9 weeks, RM-ANOVA, Tukey, p≤0.0001",significantly improved over OP mice; also recorded: significant improvement in LTP deficit from ovariectomy
same,"fEPSP slope in final 15 minutes after HFS (Post), Mean±SE post-HFS","[1]; OVX mice, estriol 5 mg subcutaneous pellet, 2×100 Hz HFS, n=4, sham-placebo 159.6±0.2, OVX-placebo 141.6±0.5",150.4±0.4
same,PSD-95 levels in dorsal hippocampus / CA1 stratum radiatum versus OVX-placebo,[2],increased expression of PSD-95; also recorded: elevated PSD-95 levels
same,"% duration in target quadrant (TQ) versus other quadrants (OQ), learning","[3]; OVX mice, 20 days of 5 mg, 90 day release estriol implants, n=7, p≤0.01",significant preference for the TQ over OQ; also recorded: ability to learn may be restored
same,average latency to platform during acquisition training,"[3]; Sham-Placebo vs OVX-Placebo vs OVX-Estriol, 3 trials/mouse/day, RM-ANOVA p>0.05",no difference was observed
same,"% duration in TQ versus OQ, estriol rescue of learning in ER beta neuronal knockout",[4],estrogen-mediated improvement is lost; also recorded: the ability of estriol to rescue learning is mediated by ER beta expression in neurons
same,Estriol levels in serum,[5],in early pregnancy range
